Measured values taken from publication PMC6576746, “Rational discovery of dual-indication multi-target PDE/Kinase inhibitor for precision anti-cancer therapy using structural systems pharmacology” (PLoS Computational Biology, 2019).

Tests used:
Assay in all cases: biochemical
Parameters in all cases: DiscoverX KinomeScan competition binding assay across human kinases; per cent of control at 10 and 100 uM
AURKB = AURKB (Homo sapiens, UniProt Q96GD4); details: competition binding, % of control
Procedure, shortened: (§1)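 Binding is expressed as %control, normalised between positive and negative control signals. The compound (levosimendan) was tested at 10 μM and 100 μM in the DiscoverX KinomeScan competition binding format against human kinases.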

CAMK4 = CAMK4 (Homo sapiens, UniProt Q16566); details: competition binding, % of control; read-out: Percent Control (100 uM Levosimendan)
Procedure, shortened: as §1

CDK4-cyclinD3 = molecular target: T1, CDK4-cyclinD3 (Homo sapiens, UniProt P11802); details: competition binding, % of control; read-out: Percent Control (100 uM Levosimendan)
T1 construct: cyclinD3
Procedure, shortened: as §1

EGFR(G719S) = EGFR(G719S) (Homo sapiens, UniProt P00533, G719S); details: competition binding, % of control
Procedure, shortened: as §1

EGFR(S752-I759del) = EGFR(S752-I759del) (Homo sapiens, UniProt P00533, DEL752-759); details: competition binding, % of control; read-out: Percent Control (100 uM Levosimendan)
Procedure, shortened: as §1

ICK = molecular target: T2, ICK (Homo sapiens, UniProt Q9UPZ9); details: competition binding, % of control; read-out: Percent Control (100 uM Levosimendan)
T2 construct: gene CILK1
Procedure, shortened: as §1

IRAK3 = IRAK3 (Homo sapiens, UniProt Q9Y616); details: competition binding, % of control; read-out: Percent Control (100 uM Levosimendan)
Procedure, shortened: as §1

JNK1 = molecular target: T3, JNK1 (Homo sapiens, UniProt P45983); details: competition binding, % of control; read-out: Percent Control (100 uM Levosimendan)
T3 construct: gene MAPK8
Procedure, shortened: as §1

LIMK1 = LIMK1 (Homo sapiens, UniProt P53667); details: competition binding, % of control; read-out: Percent Control (100 uM Levosimendan)
Procedure, shortened: as §1

MERTK = MERTK (Homo sapiens, UniProt Q12866); details: competition binding, % of control; read-out: Percent Control (100 uM Levosimendan)
Procedure, shortened: as §1

MET = MET (Homo sapiens, UniProt P08581); details: competition binding, % of control; read-out: Percent Control (100 uM Levosimendan)
Procedure, shortened: as §1

MLK3 = molecular target: T4, MLK3 (Homo sapiens, UniProt Q16584); details: competition binding, % of control; read-out: Percent Control (100 uM Levosimendan)
T4 construct: gene MAP3K11
Procedure, shortened: as §1

MUSK = MUSK (Homo sapiens, UniProt O15146); details: competition binding, % of control; read-out: Percent Control (100 uM Levosimendan)
Procedure, shortened: as §1

MYLK = MYLK (Homo sapiens, UniProt Q15746); details: competition binding, % of control
Procedure, shortened: as §1

PDPK1 = PDPK1 (Homo sapiens, UniProt O15530); details: competition binding, % of control; read-out: Percent Control (100 uM Levosimendan)
Procedure, shortened: as §1

QSK = molecular target: T5, QSK (Homo sapiens, UniProt Q9Y2K2); details: competition binding, % of control; read-out: Percent Control (100 uM Levosimendan)
T5 construct: gene SIK3
Procedure, shortened: as §1

SIK2 = SIK2 (Homo sapiens, UniProt Q9H0K1); details: competition binding, % of control; read-out: Percent Control (100 uM Levosimendan)
Procedure, shortened: as §1

SRC = SRC (Homo sapiens, UniProt P12931); details: competition binding, % of control
Procedure, shortened: as §1

STK33 = STK33 (Homo sapiens, UniProt Q9BYT3); details: competition binding, % of control; read-out: Percent Control (100 uM Levosimendan)
Procedure, shortened: as §1

[1] = read-out: Percent Control (10 uM Levosimendan)
[2] = read-out: Percent Control (100 uM Levosimendan)

MYLK, sequence (Q15746 whole entry): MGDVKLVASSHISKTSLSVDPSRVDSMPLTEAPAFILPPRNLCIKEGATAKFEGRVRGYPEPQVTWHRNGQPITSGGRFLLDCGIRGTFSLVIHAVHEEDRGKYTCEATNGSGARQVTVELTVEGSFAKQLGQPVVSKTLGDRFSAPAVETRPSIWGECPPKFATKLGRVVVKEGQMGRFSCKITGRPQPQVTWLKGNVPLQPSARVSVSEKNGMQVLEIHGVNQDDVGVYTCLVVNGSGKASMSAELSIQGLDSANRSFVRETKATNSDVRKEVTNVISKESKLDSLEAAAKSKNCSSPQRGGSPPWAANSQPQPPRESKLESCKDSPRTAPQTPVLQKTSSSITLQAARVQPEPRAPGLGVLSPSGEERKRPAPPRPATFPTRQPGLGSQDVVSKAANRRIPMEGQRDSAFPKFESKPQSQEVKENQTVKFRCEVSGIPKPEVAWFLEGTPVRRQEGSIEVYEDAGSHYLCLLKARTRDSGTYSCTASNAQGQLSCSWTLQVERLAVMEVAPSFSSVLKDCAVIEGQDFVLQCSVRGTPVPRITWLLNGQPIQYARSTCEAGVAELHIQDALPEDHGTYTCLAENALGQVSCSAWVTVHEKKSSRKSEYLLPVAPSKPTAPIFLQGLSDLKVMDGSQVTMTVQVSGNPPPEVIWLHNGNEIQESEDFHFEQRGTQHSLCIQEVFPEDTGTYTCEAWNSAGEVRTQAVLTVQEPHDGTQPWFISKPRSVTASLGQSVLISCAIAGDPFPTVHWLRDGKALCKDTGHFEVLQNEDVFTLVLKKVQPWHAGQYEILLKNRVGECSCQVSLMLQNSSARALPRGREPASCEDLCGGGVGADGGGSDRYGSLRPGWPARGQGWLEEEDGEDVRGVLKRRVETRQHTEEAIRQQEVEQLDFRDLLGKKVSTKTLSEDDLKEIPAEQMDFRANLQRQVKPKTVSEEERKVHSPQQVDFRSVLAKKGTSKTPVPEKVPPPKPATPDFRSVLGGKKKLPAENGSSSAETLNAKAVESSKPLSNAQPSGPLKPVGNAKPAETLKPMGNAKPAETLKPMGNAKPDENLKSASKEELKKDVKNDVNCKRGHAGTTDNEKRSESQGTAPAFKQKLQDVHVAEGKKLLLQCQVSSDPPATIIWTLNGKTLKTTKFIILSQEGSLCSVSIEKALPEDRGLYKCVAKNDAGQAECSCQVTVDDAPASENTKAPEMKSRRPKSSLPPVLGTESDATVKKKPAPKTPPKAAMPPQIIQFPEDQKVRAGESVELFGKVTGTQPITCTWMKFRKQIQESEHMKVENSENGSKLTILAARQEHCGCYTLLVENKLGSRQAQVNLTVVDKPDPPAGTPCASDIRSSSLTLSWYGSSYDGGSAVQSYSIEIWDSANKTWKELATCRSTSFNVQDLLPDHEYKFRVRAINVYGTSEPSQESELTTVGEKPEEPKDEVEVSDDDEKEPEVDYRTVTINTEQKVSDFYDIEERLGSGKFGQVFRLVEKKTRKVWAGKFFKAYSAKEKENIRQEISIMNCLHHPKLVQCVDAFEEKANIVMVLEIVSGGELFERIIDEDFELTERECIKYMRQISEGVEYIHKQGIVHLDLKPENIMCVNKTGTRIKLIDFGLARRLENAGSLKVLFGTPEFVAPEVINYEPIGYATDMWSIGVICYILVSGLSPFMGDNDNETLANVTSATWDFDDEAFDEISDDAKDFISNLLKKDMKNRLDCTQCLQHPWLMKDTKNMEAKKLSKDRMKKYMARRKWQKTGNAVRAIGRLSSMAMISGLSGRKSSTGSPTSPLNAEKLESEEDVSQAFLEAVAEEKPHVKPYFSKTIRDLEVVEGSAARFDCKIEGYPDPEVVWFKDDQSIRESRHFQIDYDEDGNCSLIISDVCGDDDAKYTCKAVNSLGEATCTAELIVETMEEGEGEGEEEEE
AURKB, sequence (Q96GD4 whole entry): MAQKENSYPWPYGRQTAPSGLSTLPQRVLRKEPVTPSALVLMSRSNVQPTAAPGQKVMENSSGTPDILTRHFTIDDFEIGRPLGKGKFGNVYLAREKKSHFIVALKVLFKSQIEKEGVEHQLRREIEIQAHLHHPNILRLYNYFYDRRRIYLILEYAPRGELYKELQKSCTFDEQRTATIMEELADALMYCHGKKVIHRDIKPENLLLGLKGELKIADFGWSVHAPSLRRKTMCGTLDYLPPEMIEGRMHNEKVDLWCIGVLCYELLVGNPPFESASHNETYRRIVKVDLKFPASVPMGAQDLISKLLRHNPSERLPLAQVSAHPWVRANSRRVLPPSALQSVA
SRC, sequence (P12931 whole entry): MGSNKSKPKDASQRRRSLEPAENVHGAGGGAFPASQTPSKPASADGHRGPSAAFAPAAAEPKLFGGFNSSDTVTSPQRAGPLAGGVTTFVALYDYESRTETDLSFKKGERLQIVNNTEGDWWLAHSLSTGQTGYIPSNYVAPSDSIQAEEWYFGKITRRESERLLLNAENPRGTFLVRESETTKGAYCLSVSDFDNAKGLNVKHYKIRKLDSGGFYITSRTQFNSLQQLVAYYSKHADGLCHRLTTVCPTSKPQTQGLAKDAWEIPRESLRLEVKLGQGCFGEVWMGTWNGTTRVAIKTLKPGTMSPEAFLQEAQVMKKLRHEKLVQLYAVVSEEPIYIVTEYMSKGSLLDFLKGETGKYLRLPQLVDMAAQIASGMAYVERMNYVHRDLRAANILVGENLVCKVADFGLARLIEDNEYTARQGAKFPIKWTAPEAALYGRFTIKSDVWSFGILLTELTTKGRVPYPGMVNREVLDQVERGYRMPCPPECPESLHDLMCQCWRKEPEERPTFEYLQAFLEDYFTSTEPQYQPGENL
EGFR(G719S), sequence (P00533 whole entry G719S): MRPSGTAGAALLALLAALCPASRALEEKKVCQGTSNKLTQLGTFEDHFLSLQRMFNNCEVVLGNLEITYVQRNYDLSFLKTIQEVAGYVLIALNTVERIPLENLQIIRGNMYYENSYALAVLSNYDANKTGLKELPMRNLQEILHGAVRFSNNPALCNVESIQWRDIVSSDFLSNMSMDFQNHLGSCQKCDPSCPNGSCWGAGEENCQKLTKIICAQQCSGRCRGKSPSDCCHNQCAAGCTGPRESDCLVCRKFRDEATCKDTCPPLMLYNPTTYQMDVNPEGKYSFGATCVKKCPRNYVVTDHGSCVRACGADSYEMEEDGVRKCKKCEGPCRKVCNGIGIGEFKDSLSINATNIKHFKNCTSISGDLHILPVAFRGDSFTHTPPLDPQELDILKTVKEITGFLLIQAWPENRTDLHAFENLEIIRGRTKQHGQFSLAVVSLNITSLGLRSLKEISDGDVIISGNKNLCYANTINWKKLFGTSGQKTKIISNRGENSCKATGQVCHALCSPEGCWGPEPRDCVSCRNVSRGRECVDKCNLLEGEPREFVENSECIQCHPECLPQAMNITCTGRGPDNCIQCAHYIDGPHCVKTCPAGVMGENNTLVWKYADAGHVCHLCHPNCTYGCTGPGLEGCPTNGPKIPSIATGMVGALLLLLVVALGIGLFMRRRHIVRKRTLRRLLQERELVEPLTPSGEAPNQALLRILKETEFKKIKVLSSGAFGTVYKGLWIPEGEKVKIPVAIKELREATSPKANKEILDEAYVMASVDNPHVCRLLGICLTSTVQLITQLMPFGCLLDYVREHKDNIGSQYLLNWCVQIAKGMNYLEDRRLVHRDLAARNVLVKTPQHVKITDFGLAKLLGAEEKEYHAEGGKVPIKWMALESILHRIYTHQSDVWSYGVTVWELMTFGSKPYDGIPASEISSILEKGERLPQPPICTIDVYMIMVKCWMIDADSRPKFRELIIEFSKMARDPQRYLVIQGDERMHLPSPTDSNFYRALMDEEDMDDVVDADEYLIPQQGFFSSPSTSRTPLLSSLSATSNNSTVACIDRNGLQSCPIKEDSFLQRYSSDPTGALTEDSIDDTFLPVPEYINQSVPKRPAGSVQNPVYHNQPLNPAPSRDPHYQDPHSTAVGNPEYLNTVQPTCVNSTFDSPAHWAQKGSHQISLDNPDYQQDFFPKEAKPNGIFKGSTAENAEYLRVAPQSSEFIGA
T3 sequence (P45983 whole entry): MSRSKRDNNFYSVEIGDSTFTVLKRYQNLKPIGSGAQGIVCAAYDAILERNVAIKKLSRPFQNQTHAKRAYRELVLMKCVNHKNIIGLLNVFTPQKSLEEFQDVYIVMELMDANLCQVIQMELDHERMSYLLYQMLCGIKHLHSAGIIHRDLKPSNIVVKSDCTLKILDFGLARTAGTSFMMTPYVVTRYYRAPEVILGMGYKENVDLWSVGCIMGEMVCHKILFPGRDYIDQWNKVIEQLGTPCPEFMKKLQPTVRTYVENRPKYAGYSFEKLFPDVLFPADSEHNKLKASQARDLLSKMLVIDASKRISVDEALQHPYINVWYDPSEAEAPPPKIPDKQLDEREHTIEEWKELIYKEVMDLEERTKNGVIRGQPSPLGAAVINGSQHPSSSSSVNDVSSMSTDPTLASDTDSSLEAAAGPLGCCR
STK33, sequence (Q9BYT3 whole entry): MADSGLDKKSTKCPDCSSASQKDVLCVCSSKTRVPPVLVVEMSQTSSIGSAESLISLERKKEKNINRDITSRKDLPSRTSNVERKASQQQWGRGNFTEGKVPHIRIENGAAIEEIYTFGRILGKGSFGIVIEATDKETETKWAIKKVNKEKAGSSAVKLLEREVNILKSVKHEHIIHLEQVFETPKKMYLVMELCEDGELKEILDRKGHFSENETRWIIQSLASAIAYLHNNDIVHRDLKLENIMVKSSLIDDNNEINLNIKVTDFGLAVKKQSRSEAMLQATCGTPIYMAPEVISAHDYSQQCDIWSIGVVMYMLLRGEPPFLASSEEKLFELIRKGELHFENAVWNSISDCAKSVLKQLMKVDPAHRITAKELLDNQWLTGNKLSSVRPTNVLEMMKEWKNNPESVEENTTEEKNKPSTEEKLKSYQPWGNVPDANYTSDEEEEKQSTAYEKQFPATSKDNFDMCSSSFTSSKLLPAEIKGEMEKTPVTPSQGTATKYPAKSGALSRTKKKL

- remaining binding at 10 µM (AURKB; [1]): 75%
- remaining binding at 100 µM (AURKB; [2]): 28%
- remaining binding at 100 µM (CAMK4): 100%
- remaining binding at 100 µM (CDK4-cyclinD3): 100%
- remaining binding at 10 µM (EGFR(G719S); [1]): 79%
- remaining binding at 100 µM (EGFR(G719S); [2]): 41%
- remaining binding at 100 µM (EGFR(S752-I759del)): 91%
- remaining binding at 100 µM (ICK): 94%
- remaining binding at 100 µM (IRAK3): 100%
- remaining binding at 100 µM (JNK1): 71%
- remaining binding at 100 µM (LIMK1): 73%
- remaining binding at 100 µM (MERTK): 70%
- remaining binding at 100 µM (MET): 55%
- remaining binding at 100 µM (MLK3): 73%
- remaining binding at 100 µM (MUSK): 100%
- remaining binding at 10 µM (MYLK; [1]): 38%
- remaining binding at 100 µM (MYLK; [2]): 32%
- remaining binding at 100 µM (PDPK1): 100%
- remaining binding at 100 µM (QSK): 82%
- remaining binding at 100 µM (SIK2): 65%
- remaining binding at 10 µM (SRC; [1]): 100%
- remaining binding at 100 µM (SRC; [2]): 42%
- remaining binding at 100 µM (STK33): 100%
SMILES: C[C@@H]1CC(=O)NN=C1c1ccc(NN=C(C#N)C#N)cc1 [levosimendan]
